# Assays:
# [1] = target: Gamma-aminobutyric acid receptor subunit alpha-1 (Rattus norvegicus, UniProt P62813)
# [2] = target: Gamma-aminobutyric acid receptor subunit alpha-3 (Rattus norvegicus, UniProt P20236)
# [3] = target: Gamma-aminobutyric acid receptor subunit alpha-5 (Rattus norvegicus, UniProt P19969)
# [4] = target: Gamma-aminobutyric acid receptor subunit alpha-2 (Rattus norvegicus, UniProt P23576)
# [5] = target: Gamma-aminobutyric acid receptor subunit alpha-4 (Rattus norvegicus, UniProt P28471)
# [6] = target: Gamma-aminobutyric acid receptor subunit alpha-6 (Rattus norvegicus, UniProt P30191)
# Sequence of Gamma-aminobutyric acid receptor subunit alpha-6 (P30191 whole entry): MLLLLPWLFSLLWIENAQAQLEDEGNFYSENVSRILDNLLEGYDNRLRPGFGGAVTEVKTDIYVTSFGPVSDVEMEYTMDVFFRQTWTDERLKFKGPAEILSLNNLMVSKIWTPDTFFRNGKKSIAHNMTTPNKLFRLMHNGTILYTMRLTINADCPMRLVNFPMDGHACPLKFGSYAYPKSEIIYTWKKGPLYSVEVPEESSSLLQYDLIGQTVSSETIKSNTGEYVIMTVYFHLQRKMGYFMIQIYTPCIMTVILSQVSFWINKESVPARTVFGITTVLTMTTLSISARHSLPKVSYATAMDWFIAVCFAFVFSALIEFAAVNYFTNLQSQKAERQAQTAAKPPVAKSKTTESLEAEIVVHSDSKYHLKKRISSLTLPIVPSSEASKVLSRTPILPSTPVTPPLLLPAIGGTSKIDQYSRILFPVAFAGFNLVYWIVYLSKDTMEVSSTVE
# Sequence of Gamma-aminobutyric acid receptor subunit alpha-2 (P23576 whole entry): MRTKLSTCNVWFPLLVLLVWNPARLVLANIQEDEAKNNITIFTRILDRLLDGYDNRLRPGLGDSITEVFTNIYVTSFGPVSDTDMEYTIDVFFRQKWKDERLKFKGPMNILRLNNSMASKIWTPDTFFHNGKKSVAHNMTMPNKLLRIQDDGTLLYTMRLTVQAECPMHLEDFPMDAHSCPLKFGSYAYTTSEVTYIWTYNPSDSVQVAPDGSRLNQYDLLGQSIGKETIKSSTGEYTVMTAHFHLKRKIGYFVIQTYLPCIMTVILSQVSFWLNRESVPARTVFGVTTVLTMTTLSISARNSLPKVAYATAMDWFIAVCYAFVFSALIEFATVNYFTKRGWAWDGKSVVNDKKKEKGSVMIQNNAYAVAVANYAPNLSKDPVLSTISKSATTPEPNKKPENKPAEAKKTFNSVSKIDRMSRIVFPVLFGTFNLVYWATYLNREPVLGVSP
# Sequence of Gamma-aminobutyric acid receptor subunit alpha-4 (P28471 whole entry): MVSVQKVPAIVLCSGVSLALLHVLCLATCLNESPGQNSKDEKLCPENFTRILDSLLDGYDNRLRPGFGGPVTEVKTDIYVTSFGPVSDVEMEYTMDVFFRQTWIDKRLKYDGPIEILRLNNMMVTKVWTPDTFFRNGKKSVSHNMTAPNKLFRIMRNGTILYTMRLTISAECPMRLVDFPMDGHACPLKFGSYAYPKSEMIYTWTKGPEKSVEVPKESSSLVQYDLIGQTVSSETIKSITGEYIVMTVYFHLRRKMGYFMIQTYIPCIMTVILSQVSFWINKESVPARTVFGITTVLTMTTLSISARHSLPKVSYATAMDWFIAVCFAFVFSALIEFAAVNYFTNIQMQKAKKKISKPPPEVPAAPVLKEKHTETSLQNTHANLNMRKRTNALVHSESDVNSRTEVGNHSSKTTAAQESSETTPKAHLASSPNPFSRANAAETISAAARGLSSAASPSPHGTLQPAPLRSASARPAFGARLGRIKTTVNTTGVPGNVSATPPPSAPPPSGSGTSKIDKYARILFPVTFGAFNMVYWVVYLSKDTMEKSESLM
# Sequence of Gamma-aminobutyric acid receptor subunit alpha-3 (P20236 whole entry I342M/K409L): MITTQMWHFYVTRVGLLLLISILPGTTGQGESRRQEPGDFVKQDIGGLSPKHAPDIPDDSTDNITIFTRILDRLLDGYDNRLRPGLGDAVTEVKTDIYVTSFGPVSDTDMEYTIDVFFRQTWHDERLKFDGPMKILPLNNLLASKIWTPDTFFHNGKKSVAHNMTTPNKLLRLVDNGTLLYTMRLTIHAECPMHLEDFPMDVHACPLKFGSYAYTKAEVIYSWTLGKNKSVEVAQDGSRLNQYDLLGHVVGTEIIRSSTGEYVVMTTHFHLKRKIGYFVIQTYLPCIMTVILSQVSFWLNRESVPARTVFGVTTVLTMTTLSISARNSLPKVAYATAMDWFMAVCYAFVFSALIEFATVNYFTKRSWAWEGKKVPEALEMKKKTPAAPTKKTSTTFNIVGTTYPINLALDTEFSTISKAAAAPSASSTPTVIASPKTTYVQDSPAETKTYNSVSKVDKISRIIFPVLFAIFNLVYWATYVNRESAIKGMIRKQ
# Sequence of Gamma-aminobutyric acid receptor subunit alpha-5 (P19969 whole entry): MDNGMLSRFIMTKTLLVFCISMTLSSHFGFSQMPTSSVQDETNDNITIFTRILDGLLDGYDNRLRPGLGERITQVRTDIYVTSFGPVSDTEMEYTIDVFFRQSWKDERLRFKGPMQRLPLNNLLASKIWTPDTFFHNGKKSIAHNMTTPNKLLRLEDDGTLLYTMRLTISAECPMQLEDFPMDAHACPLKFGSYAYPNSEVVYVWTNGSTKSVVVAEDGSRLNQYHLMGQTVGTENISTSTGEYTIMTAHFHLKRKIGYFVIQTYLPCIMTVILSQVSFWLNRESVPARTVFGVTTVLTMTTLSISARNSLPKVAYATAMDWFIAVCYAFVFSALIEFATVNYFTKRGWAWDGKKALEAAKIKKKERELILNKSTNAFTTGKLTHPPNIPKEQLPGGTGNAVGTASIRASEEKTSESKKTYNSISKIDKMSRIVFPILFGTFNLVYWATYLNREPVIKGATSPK
# Sequence of Gamma-aminobutyric acid receptor subunit alpha-1 (P62813 whole entry): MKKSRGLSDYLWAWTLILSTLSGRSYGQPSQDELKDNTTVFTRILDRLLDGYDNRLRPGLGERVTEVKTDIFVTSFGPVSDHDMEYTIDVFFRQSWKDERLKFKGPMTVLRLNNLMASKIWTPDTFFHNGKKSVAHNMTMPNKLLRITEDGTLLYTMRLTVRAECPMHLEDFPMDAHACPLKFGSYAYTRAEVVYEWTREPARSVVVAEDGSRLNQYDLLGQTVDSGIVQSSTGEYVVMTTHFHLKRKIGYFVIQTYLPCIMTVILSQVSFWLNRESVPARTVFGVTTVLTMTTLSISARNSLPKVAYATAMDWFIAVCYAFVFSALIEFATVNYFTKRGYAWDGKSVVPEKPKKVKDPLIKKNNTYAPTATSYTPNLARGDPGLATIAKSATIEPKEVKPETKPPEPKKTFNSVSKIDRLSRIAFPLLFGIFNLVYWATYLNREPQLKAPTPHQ
Compound,Ki [1] [µM],Ki [2] [µM],Ki [3] [µM],Ki [4] [µM],Ki [5] [µM],Ki [6] [µM]
CC(=O)C1CCC2C3CC[C@H]4C[C@H](O)CC[C@]4(C)C3CC[C@]12C (stereo partly specified) [Allopregnanolone],0.0175,0.02,0.021,0.041,1.9,
C[C@]12CC[C@H]3[C@@H](CC[C@@H]4C[C@@](O)(C(F)(F)F)CC[C@@H]43)[C@@H]1CC[C@@H]2C(=O)CO [GMA-839],0.2,0.096,0.21,0.2,2.3,2

# From BindingDB's records for PubMed 10991999 (Cocensys, 2000)
